According to patent publication US11014908B2, “Chemical compounds” (Pfizer Inc., priority 2018, dated 2021):

Key:
[1] = target: T1, purified sickle cell hemoglobin (HbS) (Homo sapiens, UniProt P68871+P69905, E7V); assay: Binding affinity to purified HbS by Surface Plasmon Resonance (SPR); conditions: crosslinked biotinylated HbS, 1:1 binding model
T1 construct: HbS was obtained from the blood of homozygous S/S patients; from tissue; host or cells: red blood cells of homozygous S/S patients
In short: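 Patient-derived HbS, purified and crosslinked between beta subunits (Lys82-Lys82), biotinylated and captured on streptavidin sensor at 4000–5000 RU. Running buffer 100 mM potassium phosphate pH 7.5, 1 mM EDTA, 0.1 mg/mL BSA, 1% DMSO; 2 min association, ≥5 min dissociation, ≥4 concentrations; Kd from 1:1 model fit.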

HbS = target: T2, HbS (Homo sapiens, UniProt P68871+P69905, E7V); assay: 'R'-'T' assay (conversion of oxy HbS to deoxy HbS under deoxygenating conditions); format: biochemical; conditions: 50% inhibition of HbS 'R'-'T' conversion; 3 uM HbS, <1% O2
T2 construct: HbS was obtained from the blood of homozygous S/S patients; from tissue; host or cells: red blood cells of homozygous S/S patients
In short: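 Oxy HbS diluted to 3 µM in 100 mM potassium phosphate pH 7.4, incubated 1 h at room temperature with compound, then held under <1% O2 for 2 h. Conversion followed by background-corrected 415/430 nm absorbance ratio at 0, 90 and 120 min; percent effect normalized to tucaresol, IC50 from concentration series.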

Hb in human whole blood = target: T3, Hb in human whole blood (Homo sapiens, UniProt P68871+P69905); assay: Whole blood oxygen affinity assay (Hemox analyzer), human blood; conditions: 1 mM compound, 1 hour at 25 C, relative to DMSO
T3 construct: measured in human, dog, and mouse whole blood; from tissue; host or cells: human whole blood
Description: Whole Blood Oxygen Affinity Assay
Oxygen affinity is a marker of the ability of Hb to bind and release oxygen in solution. It can be determined in whole blood by measuring the percentage of oxygenated and deoxygenated Hb present at a given oxygen concentration. Oxygen affinity is expressed as the p50, the partial pressure of oxygen at which 50% of the Hb in solution has oxygen bound, or the p20, the partial pressure of oxygen at which 20% of the Hb in solution has oxygen bound.
To determine the effects of compounds of the invention on oxygen affinity the p50 and p20 were measured in human, dog, and mouse whole blood using a Hemeox Analyzer (TCS Scientific). The blood was spiked with a compound of the invention to a concentration of 1 mM and incubated for 1 hour at 25 C with constant rotation. A concentration of 1 mM of compound was selected to approximate 20% hemoglobin occupancy in whole blood. Controls with the same concentration of DMSO, but no compound were incubated in the same way at the same time. Following incubation, samples were immediately assayed for oxygen affinity using the Hemox analyzer. Fifty μL of blood sample was diluted into 5 mL of hemox buffer (TCS Scientific), which had been pre-incubated to 37 C. Following dilution, samples were loaded into the analysis chamber, and fully oxygenated using compressed air. Once samples had reached an pO2 of >150 torr, the measurement was initiated by switching to N2, and the percent oxyhemoglobin as a function of partial pressure was recorded. The p20 and p50 of each sample were recorded from the instrument readout. Data are reported as the percent (%) change relative to DMSO according to the following calculations: […]

[2] = Single dose study in sickle Townes mice: exposure in whole blood; format: in vivo; conditions: male, Townes (sickle cell disease model), mouse, SCD mice, n=3
Protocol: In Vivo Studies Mouse Model
The effect of the compounds of the invention was evaluated in-male sickle Townes mice in a single dose study. Compounds of the invention were administered in amounts set out in Tables 7, 8 and 9 that follow by oral gavage. Control mice received vehicle. Blood (50 μL) was drawn at 0.5 h, 1 h, 4 h, 7 h, 10 h, and 24 h. To measure exposure in whole blood, 20 μL sample was used. Blood drawn at 0.5 h was also evaluated for cell sickling.

Townes SCD mice = assay: Chronic dosing study (BID, 15 days) in Townes SCD mice; format: in vivo, mouse; conditions: 100 mg/kg BID for 15 days, n=4-5, Townes SCD mice, vs vehicle
Protocol: Following 15 days of dosing, blood samples were collected from all animals to run in the Hemeox analyzer to generate oxygen affinity curves, complete blood analysis was performed using Idexx hematology Analyzer, and cell sickling assessed as described before. Soluble Vascular Adhesion Molecule 1 levels (sVCAM1) were assessed by Enzyme linked immunosorbent assay (ELISA) from R&D systems. Results are presented below in Tables 7, 8 and 9.

SMILES	Kd [1]	IC50 (HbS)	further results
C[C@H](Oc1cc2cc(C(N)=O)ccc2nc1N)c1cc2[nH]ncc2cc1-n1cccn1 [Example 61, 2-amino-3-{(1S)-1-[5-(1H-pyrazol-1-yl)-1H-indazol-6-yl]ethoxy}quinoline-6-carboxamide]	0.036 µM	5.45 µM	Reduction in p20 (%) Human (Hb in human whole blood): 14 ± 8%; Reduction in p50 (%) Human (Hb in human whole blood): 1 ± 6%
C[C@H](Oc1cc2cc(F)c(Cl)cc2nc1N)c1cc2[nH]ncc2cc1-n1cccn1 [Example 60, 7-chloro-6-fluoro-3-{(1S)-1-[5-(1H-pyrazol-1-yl)-1H-indazol-6-yl]ethoxy}quinolin-2-amine]	0.055 µM	4.11 µM	
C[C@H](Oc1cc2cc(F)ccc2nc1N)c1nc(OCC(=O)O)ccc1-n1cccn1 [Example 40, {[6-{(1S)-1-[(2-amino-6-fluoroquinolin-3-yl)oxy]ethyl}-5-(1H-pyrazol-1-yl)pyridin-2-yl]oxy}acetic Acid]	0.164 µM	5.27 µM	
C[C@H](O)c1ccc2nc(N)c(O[C@@H](C)c3nc(O)ccc3-n3cccn3)cc2c1 [Example 52, 6-[(1S)-1-({2-amino-6-[(1S)-1-hydroxyethyl]quinolin-3-yl}oxy)ethyl]-5-(1H-pyrazol-1-yl)pyridin-2-ol]	10 µM	100 µM	
C[C@H](Oc1cc2cc(Br)ccc2nc1N)c1ncccc1-n1cccn1 [Example 28, 6-bromo-3-{(1S)-1-[3-(1H-pyrazol-1-yl)pyridin-2-yl]ethoxy}quinolin-2-amine]	0.157 µM	6.56 µM	
C[C@H](Oc1cc2cc(C(C)(C)O)ccc2nc1N)c1nc(O)ccc1-n1cccn1 [Example 50, 6-[(1S)-1-{[2-amino-6-(2-hydroxypropan-2-yl)quinolin-3-yl]oxy}ethyl]-5-(1H-pyrazol-1-yl)pyridin-2-ol]	1.33 µM	100 µM	
COCCNC(=O)c1ccc(-n2cccn2)c([C@H](C)Oc2cc3cc(F)ccc3nc2N)c1 [Example 11, 3-{(1S)-1-[(2-amino-6-fluoroquinolin-3-yl)oxy]ethyl}-N-(2-methoxyethyl)-4-(1H-pyrazol-1-yl)benzamide]	0.061 µM	4.35 µM	

Now from value to compound, other results behind:

Kd [1]	IC50 (HbS)	SMILES	further results
0.183 µM	5.36 µM	C[C@H](Oc1cc2cc(C(N)=O)ccc2nc1N)c1ncc(F)cc1-n1cccn1 [Example 27, 2-amino-3-{(1S)-1-[5-fluoro-3-(1H-pyrazol-1-yl)pyridin-2-yl]ethoxy}quinoline-6-carboxamide]	Reduction in p20 (%) Human (Hb in human whole blood): 70 ± 4%; Reduction in p50 (%) Human (Hb in human whole blood): 26 ± 1%; concentration at 0.5 h ([2]; single dose 5 mg/kg oral gavage): 7.4 µM; concentration at 0.5 h ([2]; single dose 50 mg/kg oral gavage): 208 µM; Hb, Change (increase) (Townes SCD mice): 54.4 ± 8.7% increase; Hematocrit, Change (increase) (Townes SCD mice): 42.0 ± 12.7% increase; RBC sickling, Change (decrease) (Townes SCD mice): 19.2 ± 5.4% decrease; RBCs, Change (increase) (Townes SCD mice): 51.9 ± 8.3% increase; Reticulocytes, Change (decrease) (Townes SCD mice): 18.4 ± 5.5% decrease; p20, Change (decrease) (Townes SCD mice): 10.8 ± 3.8% decrease; p50, Change (decrease) (Townes SCD mice): 7.89 ± 3.36% decrease
6.88 µM	52.1 µM	C[C@H](Oc1cc2cc([C@@H](C)O)ccc2nc1N)c1nc(O)ccc1-n1cccn1 [Example 51, 6-[(1S)-1-({2-amino-6-[(1R)-1-hydroxyethyl]quinolin-3-yl}oxy)ethyl]-5-(1H-pyrazol-1-yl)pyridin-2-ol]	
0.172 µM	5.4 µM	Cc1cc2nc(N)c(O[C@@H](C)c3cc(C(=O)O)ccc3-n3cccn3)cc2cn1 [Example 22, 3-{(1S)-1-[(2-amino-7-methyl-1,6-naphthyridin-3-yl)oxy]ethyl}-4-(1H-pyrazol-1-yl)benzoic Acid]	
0.1 µM	4.92 µM	C[C@H](Oc1cc2cc(F)ccc2nc1N)c1cc(C(=O)O)ccc1-n1cccn1 [Example 4, 3-{(1S)-1-[(2-amino-6-fluoroquinolin-3-yl)oxy]ethyl}-4-(1H-pyrazol-1-yl)benzoic Acid]	Reduction in p20 (%) Human (Hb in human whole blood): 40 ± 4%; Reduction in p50 (%) Human (Hb in human whole blood): 7 ± 3%
0.057 µM	4.75 µM	C[C@H](Oc1cc2cc(F)c(Cl)cc2nc1N)c1nc(C(N)=O)ccc1-n1cccn1 [Example 32, 6-{(1S)-1-[(2-amino-7-chloro-6-fluoroquinolin-3-yl)oxy]ethyl}-5-(1H-pyrazol-1-yl)pyridine-2-carboxamide]	
0.021 µM	6.82 µM	C[C@H](Oc1cc2cc(F)c(Cl)cc2nc1N)c1cc(C(N)=O)c(F)cc1-n1cccn1 [Example 2, 5-{(1S)-1-[(2-amino-7-chloro-6-fluoroquinolin-3-yl)oxy]ethyl}-2-fluoro-4-(1H-pyrazol-1-yl)benzamide]	
0.01 µM	4.67 µM	C[C@H](Oc1cc2cc(F)cc(F)c2nc1N)c1cc2c(cnn2CC(=O)O)cc1-n1cccn1 [Example 69, [6-{(1S)-1-[(2-amino-6,8-difluoroquinolin-3-yl)oxy]ethyl}-5-(1H-pyrazol-1-yl)-1H-indazol-1-yl]acetic Acid]	
